Values joined by “and” are separate entries in the source; they are usually repeats but may differ in a detail not shown here. Identical values can stand only once.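 Protocol summary: plate cells (96-well), add compound at 5 concentrations, incubate 48 h, interpolate endpoints linearly. GI50 = concentration required for 50% inhibition of growth. TGI marks complete inhibition of growth.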 Where only a bound is given, the exact number is not on record here.

Some test systems named below: DMS 114 small cell lung; KM20L2 colon; RXF-631 renal; SNB-78 CNS; XF 498 CNS; HOP-18 NSCLC; MCF7 breast; P388 leukemia; P388/ADR leukemia; SN12K1 renal; MDA-N; T-47D breast.
Common to all, as to experiment: NCI tumour cell line growth inhibition, 48 h

With `CC1=C(C(=O)Nc2ccc([N+](=O)[O-])cc2)C(c2ccco2)C(C(=O)Nc2ccc([N+](=O)[O-])cc2)=C(C)N1`, the TGI is 43.2 µM with DMS 114 small cell lung; 60 µM with KM20L2 colon; more than 100 µM with RXF-631 renal; 78.8 µM in the assay with SNB-78 CNS; more than 100 µM in the assay on XF 498 CNS.

On to `Cc1cc(Br)cc(C)c1NC(=O)C(=O)CC(=O)c1sc(-n2nc(-c3ccccc3)cc2-c2ccccc2)nc1C`, for which the TGI in the assay on DMS 114 small cell lung, in the assay on HOP-18 NSCLC, with KM20L2 colon, in the assay with RXF-631 renal and in the assay on SNB-78 CNS was more than 100 µM in each case.

With `O/N=C1/C(=C/c2ccc(F)cc2)CCCC1C(NO)c1ccc(F)cc1` (centres undefined), the TGI in the assay on DMS 114 small cell lung is more than 100 µM; with HOP-18 NSCLC it was 87.3 µM; in the assay with KM20L2 colon it was 72.2 µM; in the assay with RXF-631 renal it was more than 100 µM; with SNB-78 CNS, more than 100 µM; in the assay on XF 498 CNS, more than 100 µM.

Consider `Cn1ncc2cc3c(Nc4ccc(Cl)cc4)cccc3nc21`, for which the TGI in the assay on DMS 114 small cell lung was 28.9 µM; in the assay with KM20L2 colon, 34.8 µM; with RXF-631 renal, 74.7 µM; with SNB-78 CNS it was more than 100 µM; with XF 498 CNS, 20.5 µM.

Turning to `CCCCCCC(=O)C/C(CCC(=O)N(Cc1ccccc1)Cc1ccccc1)=N\Nc1ccc([N+](=O)[O-])cc1[N+](=O)[O-]`, the TGI in the assay with DMS 114 small cell lung was 40.6 µM; in the assay with HOP-18 NSCLC, more than 100 µM; in the assay on KM20L2 colon it was more than 100 µM; in the assay on SNB-78 CNS it was more than 100 µM.

For the molecule `O=C1C2=C(c3ccccc31)C(c1ccc(Cl)cc1)N1C(=O)CCSC1=N2` (centres undefined), the TGI with DMS 114 small cell lung, in the assay with KM20L2 colon, in the assay on RXF-631 renal and in the assay on XF 498 CNS was more than 100 µM in each case.

As for `C=C(c1ccccc1N)[C@@]1(O)C[C@H](/C(=C\C)CO)C[C@@H]1NCc1ccccc1`, the TGI came out at 33.9 µM in the assay with DMS 114 small cell lung, 52.4 µM in the assay on HOP-18 NSCLC, 42.6 µM with KM20L2 colon and 79.7 µM with SNB-78 CNS.

In the case of `S=c1[nH]nc(COc2ccc(Cl)cc2)o1`, the TGI with DMS 114 small cell lung, in the assay on HOP-18 NSCLC, in the assay on KM20L2 colon, with RXF-631 renal and in the assay on SNB-78 CNS was more than 100 µM in each case.

Consider `CC(Cl)(/C=C/Cl)C(Cl)/C=C/C(Cl)(CCl)CBr` (centres undefined), for which the TGI in the assay on DMS 114 small cell lung worked out at 5.32 µM; in the assay on HOP-18 NSCLC, 11.6 µM; with KM20L2 colon it was 23.9 µM; in the assay on RXF-631 renal, 4.05 µM; with SNB-78 CNS, 4.95 µM.

For `CC(C)=CC(=O)CC(=O)C(=O)Nc1ccc(C)c(C)c1`, the TGI in the assay on KM20L2 colon, in the assay with RXF-631 renal, in the assay with SNB-78 CNS and in the assay on XF 498 CNS was more than 100 µM each time.

For `Cn1nc(-c2ccccc2NC(=O)C(F)(F)F)c(=O)n(C)c1=S`, the results for the TGI in the assay on DMS 114 small cell lung and in the assay on XF 498 CNS were 29.5 µM and 36.9 µM, respectively.

In the case of `CC1=C(C(=O)Nc2ccccc2)C(c2ccc3c(c2)OCO3)C(C(=O)Nc2ccccc2)=C(C)N1`, the TGI is more than 100 µM with DMS 114 small cell lung, more than 100 µM in the assay with HOP-18 NSCLC, more than 100 µM with RXF-631 renal and 85.4 µM in the assay on XF 498 CNS.

Consider `CCOC(=O)CCC(NC(=O)c1ccc(N=Cc2nc3cc(C(F)(F)F)ccc3nc2-c2ccccc2)cc1)C(=O)OCC` (centres undefined), for which the TGI in the assay with DMS 114 small cell lung is more than 100 µM; in the assay with HOP-18 NSCLC it was more than 100 µM; in the assay with KM20L2 colon, more than 100 µM; with SNB-78 CNS, 32 µM and 98.8 µM; in the assay with XF 498 CNS, 11.7 µM. The GI50 was more than 100 µM with KM20L2 colon and 18.1 µM in the assay on SNB-78 CNS.

Take `CC(=O)[CH-]C(=O)c1ccccc1.CC(=O)[CH-]C(=O)c1ccccc1.CCN(CC)CC[O-].CCN(CC)CC[O-].Cl.[Ti+4]`: in the assay on KM20L2 colon, the GI50 is 28.9 µM and the TGI is more than 100 µM.

`NNC(=O)/C(=C/c1cccc([N+](=O)[O-])c1)NC(=O)c1ccccc1`: the TGI in the assay with DMS 114 small cell lung, in the assay with HOP-18 NSCLC, with RXF-631 renal, with SNB-78 CNS and in the assay on XF 498 CNS was more than 100 µM each time.

Consider `CNC(=O)OCc1nc(SC(C)C)n(C)c1COC(=O)NC`, for which the TGI in the assay on DMS 114 small cell lung, with HOP-18 NSCLC, with KM20L2 colon, with MCF7 breast, in the assay with P388 leukemia and in the assay on P388/ADR leukemia was more than 100 µM in each case. Further, the TGI with SN12K1 renal and in the assay on SNB-78 CNS was more than 100 µM in each case.

On to `COc1c(OC(C)=O)ccc(/C=C2\N=C(C)OC2=O)c1[N+](=O)[O-]`, for which the TGI in the assay with HOP-18 NSCLC, in the assay with KM20L2 colon, in the assay with RXF-631 renal and in the assay on SNB-78 CNS was more than 100 µM throughout.

Consider `C/C(=N\NC(=S)Nc1ccc(C(=O)O)cc1)c1ccccn1`, for which the TGI was more than 100 µM with DMS 114 small cell lung; 97.5 µM in the assay with HOP-18 NSCLC; 78.9 µM with KM20L2 colon; more than 100 µM in the assay on SNB-78 CNS; 63.7 µM in the assay on XF 498 CNS.

Turning to `CCOC(=O)C1C=C2O[C@@H]3OC4(CCCCC4)O[C@@H]3C2[C@H]2C(=O)C=CC(=O)[C@@]12C(=O)OC` (some centres undefined), the TGI worked out at 9.68 µM with DMS 114 small cell lung; 32.4 µM with HOP-18 NSCLC; 30.6 µM in the assay on KM20L2 colon; 51.8 µM in the assay on RXF-631 renal; 19.3 µM with SNB-78 CNS; 12.8 µM with XF 498 CNS.

On to `CCOC(=O)Cc1c(Cc2[nH]c(C(=O)OCc3ccccc3)c(CC(=O)OCC)c2CC(=O)OCC)[nH]c(C(=O)OCc2ccccc2)c1CC(=O)OCC`, for which the TGI in the assay with DMS 114 small cell lung, with HOP-18 NSCLC, in the assay with KM20L2 colon and in the assay with SNB-78 CNS was more than 100 µM in each case.

Take `CCCCN(CCCC)C(=O)C(=O)CC(=O)c1ccc(Br)cc1`: the TGI in the assay on DMS 114 small cell lung, with HOP-18 NSCLC, in the assay with KM20L2 colon, in the assay with SNB-78 CNS and in the assay on XF 498 CNS was more than 100 µM in each case.

In the case of `COc1cc(C(=O)O)c([N+](=O)[O-])c(OC)c1OC`, the TGI in the assay with MCF7 breast, in the assay on MDA-N and in the assay on T-47D breast was more than 100 µM throughout.

For `N[C@H]1C2C3CC4C5CC(C42)C1(c1ccccc1)C53` (some centres undefined), the TGI in the assay with DMS 114 small cell lung, with HOP-18 NSCLC, with KM20L2 colon, in the assay with SNB-78 CNS and with XF 498 CNS was more than 100 µM throughout.

Take `Cc1cc(C)nc(NS(=O)(=O)c2ccc(Nc3c4ccccc4nc4c(C(=O)Nc5ccc(S(N)(=O)=O)cc5)cccc34)cc2)n1`: the TGI with DMS 114 small cell lung, with HOP-18 NSCLC, in the assay with KM20L2 colon, in the assay on SNB-78 CNS and in the assay with XF 498 CNS was more than 100 µM each time.

Take `CC(Cc1ccc(Cl)cc1Cl)NO` (centres undefined): the TGI in the assay on MCF7 breast, in the assay on MDA-N and in the assay on T-47D breast was more than 100 µM each time.

With `Cc1c(NC(=O)C(=O)N=NC(=O)c2ccncc2)c(O)c2ccccc2c1O`, the TGI in the assay with DMS 114 small cell lung was 15.3 µM; in the assay with HOP-18 NSCLC, 22.3 µM; with KM20L2 colon, 70.3 µM; in the assay with RXF-631 renal it was more than 100 µM; in the assay on SNB-78 CNS, 39.7 µM.

On to `Cc1ccc(S(=O)(=O)N/N=C/C(Br)=C(/Br)C(=O)O)cc1`, for which the figures for the TGI in the assay on MCF7 breast, with MDA-N and in the assay on T-47D breast were 51 µM, 18.8 µM and 23.3 µM, respectively.

For the molecule `COc1cc(O)c(C(=O)/C=C/c2ccccc2)c(OC)c1`, the TGI in the assay on MCF7 breast amounted to 24.2 µM; with MDA-N, 14.7 µM; in the assay on T-47D breast, 24.6 µM.

On to `CCOC(=O)c1cccc(=O)c(C(=O)OCC)c1`, for which the TGI with DMS 114 small cell lung, in the assay with KM20L2 colon, in the assay on RXF-631 renal, with SNB-78 CNS and in the assay with XF 498 CNS was more than 100 µM throughout.

On to `ClC(=Nc1cccc2ccccc12)N(c1ccccc1)c1ccccc1`, for which the TGI with MCF7 breast, in the assay on MDA-N and in the assay on T-47D breast was more than 100 µM throughout.

As to `O=C1C2=C(c3ccccc31)C(c1cccc(Cl)c1)NC(=S)N2` (centres undefined), the TGI in the assay with DMS 114 small cell lung, with KM20L2 colon and in the assay with XF 498 CNS was more than 100 µM in each case.

Take `CC(=O)Oc1c(C)n(CCCl)ccc1=O`: the TGI with DMS 114 small cell lung, in the assay with HOP-18 NSCLC, with KM20L2 colon, in the assay on RXF-631 renal, with SNB-78 CNS and in the assay on XF 498 CNS was more than 100 µM throughout.

For `COc1ccc(-c2oc3cc(O)c(OC)c(O)c3c(=O)c2OC2OC(CO)C(O)C(O)C2O)cc1` (centres undefined), the TGI in the assay on DMS 114 small cell lung, in the assay with HOP-18 NSCLC, in the assay with KM20L2 colon and in the assay on SNB-78 CNS was more than 100 µM each time.

In the case of `C/C(=N\N(C)C)c1sc(-n2nc(-c3ccccc3)cc2-c2ccccc2)nc1C`, the TGI in the assay with DMS 114 small cell lung, in the assay with HOP-18 NSCLC, in the assay with KM20L2 colon, with RXF-631 renal, with SNB-78 CNS and with XF 498 CNS was more than 100 µM throughout.

In the case of `NC(N)=NC(CC(=O)O)c1ccccc1` (centres undefined), the TGI in the assay on MCF7 breast, in the assay on MDA-N and in the assay with T-47D breast was more than 100 µM in each case.

Take `CCOC(=O)/N=c1\ss/c(=N\C(=S)N(C)C)n1-c1ccccc1`: the GI50 in the assay on DMS 114 small cell lung and with KM20L2 colon was more than 100 µM in each case. Further, the TGI with KM20L2 colon, with SNB-78 CNS and in the assay with XF 498 CNS was more than 100 µM each time.

As to `CC1=COC(=O)c2ccccc2N1`, the TGI in the assay on DMS 114 small cell lung, with KM20L2 colon and with SNB-78 CNS was more than 100 µM throughout.

In the case of `COc1ccc(/C=C2/CCCC/C2=N/O)cc1`, the TGI in the assay on DMS 114 small cell lung, with HOP-18 NSCLC, in the assay with KM20L2 colon, in the assay on RXF-631 renal and with SNB-78 CNS was more than 100 µM throughout.
